Experimental data as given in paper PMC8399014, “Design of Multifaceted Antioxidants: Shifting towards Anti-Inflammatory and Antihyperlipidemic Activity” (Molecules, 2021).
pIC50: −log10 of the molar value. Where two headings read alike, the source gives them in different places. Marks after values point to notes of the source that are not given here.

How the values were obtained:
[1] = target: T1, soybean lipoxygenase (LOX-3) (Glycine max, UniProt P09186); test: Soybean lipoxygenase (LOX-3) inhibition; format: biochemical; conditions: for LOX-3 inhibitory activity (in words): parent antioxidants
T1 sequence (P09186 1-857): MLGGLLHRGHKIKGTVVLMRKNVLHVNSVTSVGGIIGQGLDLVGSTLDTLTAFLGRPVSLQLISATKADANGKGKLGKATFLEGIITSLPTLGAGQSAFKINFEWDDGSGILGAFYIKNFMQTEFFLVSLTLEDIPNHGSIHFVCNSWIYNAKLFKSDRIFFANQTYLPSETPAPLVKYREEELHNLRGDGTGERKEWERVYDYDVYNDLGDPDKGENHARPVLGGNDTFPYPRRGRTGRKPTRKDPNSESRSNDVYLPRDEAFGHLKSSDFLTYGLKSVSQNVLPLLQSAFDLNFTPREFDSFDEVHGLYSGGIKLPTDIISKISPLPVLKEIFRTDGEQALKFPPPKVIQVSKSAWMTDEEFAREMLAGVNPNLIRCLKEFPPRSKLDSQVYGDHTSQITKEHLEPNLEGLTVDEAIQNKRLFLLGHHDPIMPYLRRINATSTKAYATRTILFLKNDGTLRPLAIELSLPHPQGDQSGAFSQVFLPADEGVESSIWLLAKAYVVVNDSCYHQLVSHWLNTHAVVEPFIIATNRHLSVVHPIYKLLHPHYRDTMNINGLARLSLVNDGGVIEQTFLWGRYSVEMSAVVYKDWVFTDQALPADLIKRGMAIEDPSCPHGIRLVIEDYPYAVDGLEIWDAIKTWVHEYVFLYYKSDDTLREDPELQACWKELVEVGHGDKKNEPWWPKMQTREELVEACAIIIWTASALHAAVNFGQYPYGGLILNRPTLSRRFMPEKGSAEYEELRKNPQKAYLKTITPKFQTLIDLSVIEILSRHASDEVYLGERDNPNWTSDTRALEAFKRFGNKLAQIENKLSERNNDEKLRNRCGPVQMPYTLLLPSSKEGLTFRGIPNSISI
Experimental: The anti-inflammatory effect of the synthesized compounds was initially evaluated in vitro, via their ability to inhibit soybean lipoxygenase (LOX-3).
Lipoxygenase activity was determined using soybean lipoxygenase (250 U/mL) and sodium linoleate (100 μM) as substrate, in Tris–HCl buffer pH 9.0. The test compounds dissolved in methanol were added and the reaction was monitored for 5 min at 28 °C, recording absorbance at 234 nm.

[2] = test system: carrageenan-induced mouse paw edema; test: Carrageenan-induced mouse paw edema; format: in vivo; conditions: for inhibition in vivo at 300 µmol/kg: Mus musculus, ip, 0.30 mmol/kg i.p., 3.5 h after carrageenan, mean of 6 animals, read-out: % Edema Reduction
Experimental: In vivo anti-inflammatory activity of the synthesized compounds was evaluated as mouse paw edema reduction. Paw edema was induced by subcutaneous injection of a 2% carrageenan suspension in the right paw of mice, the left serving as the control. The activity of the tested compounds (at 0.30 mmol/kg of body weight, i.p.), expressed as % reduction in paw edema 3.5 h after carrageenan injection, is shown in Table 2. […] Moreover, compounds 9 and 10 (antioxidant derivatives of mefenamic acid) caused a 1.5–2-fold improvement in edema reduction compared to that of the parent mefenamic acid (i).
For the in vivo anti-inflammatory activity, Wistar male rats or C57BL/6 mice were injected with 0.025 mL carrageenan (2% w/v solution in saline) i.d. into the right hind paw, with the left paw serving as the control. The test compounds (300 μmol/kg) were given, i.p., after the carrageenan injection, and 3.5 h later, the produced edema was estimated as the paw weight increase. Results are expressed as percentage of the reduction in paw edema and are the means for six animals (per compound).

[3] = Radical scavenging of DPPH; conditions: DPPH 200 μM, after incubation for 30 min
Experimental: The antioxidant activity of compounds 1–17 was evaluated via their ability to scavenge the free radical DPPH.
Compounds dissolved in absolute methanol at concentrations of 25–400 μM were added to an equal volume of a methanolic solution of DPPH (final concentration 200 μM) at room temperature (22 ± 2 °C). Absorbance (517 nm) was recorded at different time intervals for 1 h and results were expressed as IC50 (μM) for DPPH after incubation for 30 min [3].

[4] = test system: rat/mouse microsomal lipid peroxidation; test: Inhibition of microsomal lipid peroxidation; format: biochemical, C57BL/6 mice; conditions: after 45 min of incubation; read-out: IC50 against microsomal lipid peroxidation
Experimental: The antioxidant effect of the new compounds, as well as their parent compounds was also evaluated by the protection offered against rat/mouse microsomal lipid peroxidation.
The incubation mixture contained heat-inactivated (90 °C for 90 s) liver microsomal fraction from untreated C57BL/6 mice (corresponding to 2.5 mg of hepatic protein per milliliter or 4 mM fatty acid residues), ascorbic acid (0.2 mM) in Tris–HCl/KCl buffer (50 mM/ 150 mM, pH 7.4), and the studied compounds dissolved in dimethyl sulfoxide (in different concentrations). The reaction was initiated by the addition of a freshly prepared FeSO4 solution (10 μM), and the mixture was incubated at 37 °C for 45 min. Aliquots were taken at various time intervals and lipid peroxidation was assessed by the spectrophotometric (535 against 600 nm) determination of the produced 2-thiobarbituric acid reactive material.

[5] = test system: rat/mouse microsomal lipid peroxidation; design: method as in doi:10.1002/(SICI)1098-2299(199905)47:1<9::AID-DDR2>3.0.CO; conditions: after 45 min of incubation; read-out: IC50 against microsomal lipid peroxidation; cited from earlier work
[6] = test system: carrageenan-induced mouse paw edema; conditions: cited from earlier work
[7] = test system: experimentally induced hyperlipidemic mouse model; test: Tyloxapol (Triton WR 1339)-induced hyperlipidemia; format: in vivo, mice; conditions: 84 μmol/kg i.p.; 24 h after tyloxapol
Experimental: Acute hyperlipidemia was achieved, i.p., by the administration of tyloxapol (Triton WR 1339). The antihyperlipidemic effect of the tested compounds was evaluated as the decrease in total cholesterol (TC) and triglyceride (TG) levels in plasma 24 h after tyloxapol administration. The results are shown in Figure 4A,B. Compounds 9 and 10 reduced TC levels in plasma by 73% and 50%, respectively, and TG levels by 76% and 41%, respectively.
An aqueous solution of Triton WR 1339 was given, i.p., to mice (400 mg/kg of body weight) and one hour later the test compounds (84 μmol/kg of body weight), dissolved in saline or saline only were administered, i.p. After 24 h, blood was taken from the aorta/heart and used for the determination of plasma total cholesterol (TC) and triglyceride (TG) levels, using commercially available kits. Levels of plasma lipids were determined in duplicate while the values presented were the mean from eight animals (per compound).

[8] = after 5 min of incubation, sodium linoleate 100 μM, pH 9.0, read-out: IC50 Value on LOX-3

LOX-3 inhibitory activity (in words) [1] | pIC50 [3] | pIC50 [4] | SMILES | inhibition in vivo at 300 µmol/kg [2] [%] | further results
little or no inhibitory activity | 4.48 | 4.60 | Cc1c(C)c2c(c(C)c1O)CCC(C)(C(=O)O)O2 (stereo not drawn) [Trolox, 6-hydroxy-2,5,7,8-tetramethylchromane-2-carboxylic acid, reference compound] | 46 | –
– | – | – | Cc1cccc(Nc2ccccc2C(=O)O)c1C [i, Mefenamic acid, reference compound] | 35 | pIC50 [5]: 3.89
– | – | – | COc1ccc2cc(C(C)C(=O)OCc3cc(C(C)(C)C)c(O)c(C(C)(C)C)c3)ccc2c1 (stereo not drawn) [Compound 3, 3,5-di-tert-butyl-4-hydroxybenzyl 2-(6-methoxynaphthalen-2-yl)propanoate] | – | pIC50 [1, 8]: 4.39; melting point: 85 to 86 °C; % Edema Reduction ([6]; 0.15 mmol/kg i.p.): 78**^a [11] %
– | – | – | COc1ccc2cc([C@H](C)C(=O)O)ccc2c1 [c, Naproxen, reference compound] | – | pIC50 [1]: 4.60; % Edema Reduction ([6]; 0.30 mmol/kg i.p.): 51** [11] %
– | – | 5.30 | Cc1cccc(Nc2ccccc2C(=O)OCc2cc(C(C)(C)C)c(O)c(C(C)(C)C)c2)c1C [Compound 9, 3,5-di-tert-butyl-4-hydroxybenzyl 2-((2,3-dimethylphenyl)amino)benzoate] | 63 | pIC50 [1, 8]: 3.97; improvement in edema reduction ([2]; compared to parent mefenamic acid (i)): 1.5–2 fold; reduction of total cholesterol (TC) levels in plasma [7]: 73%; reduction of triglyceride (TG) levels in plasma [7]: 76%
– | – | – | Cc1c(Cl)cccc1Nc1ccccc1C(=O)O [e, Tolfenamic acid] | – | % Edema Reduction ([6]; 0.30 mmol/kg i.p.): 60*** [5] %; pIC50 [5]: 3.60
little or no inhibitory activity | 3.80 | 5.00 | CC(C)(C)c1cc(CO)cc(C(C)(C)C)c1O [BHBA, 3,5-di-tert-butyl-4-hydroxybenzyl alcohol, reference compound] | 71 | –
little or no inhibitory activity | 4.51 | 3.59 | CC(C)(C)c1cc(C(=O)O)cc(C(C)(C)C)c1O [BHB, 3,5-di-tert-butyl-4-hydroxybenzoic acid, reference compound] | 53 | –
